Assay results taken from US7863416B2, “Nociceptin-based analgesics” (Synvax, Inc., priority 2001, dated 2011).
Square brackets hold non-standard residues; d marks the D form. Peptide text beside a SMILES is read from it. Trp(5-CN) = N#Cc1ccc2[nH]cc(C[C@H](N)C(=O)O)c2c1; Phe(4-CN) = N#Cc1ccc(C[C@H](N)C(=O)O)cc1; Phe(4-F) = N[C@@H](Cc1ccc(F)cc1)C(=O)O; hPhe = N[C@@H](CCc1ccccc1)C(=O)O; Ahx = NCCCCCC(=O)O

Columns and labels:
human ORL1 [1] = target: T1, human ORL1 (Homo sapiens, UniProt P41146); assay: Stimulation of [35S]GTPγS binding in membranes of CHO cells transfected with human ORL-1; type: biochemical; details: for Emax: read-out: % Stimulation ± SEM of [35S]GTPγS binding; for EC50 ± SEM, stimulation of [35S]GTPγS binding: Table 6
T1 construct: expressed in transfected cells; host or cells: CHO cells (G418-selected)
Description: First, CHO cells transfected with human ORL-1 are scraped from tissue culture dishes into 20 mM HEPES, 1 mM EDTA, and then centrifuged at 500×g for 10 minutes. The cells are then re-suspended in this buffer and homogenized using a Polytron Homogenizer.
The cellular homogenate is next centrifuged at 20,000×g for 20 minutes. Following this, the resulting pellet is re-suspended in a buffer containing 20 mM HEPES, 10 mM MgCl2, and 100 mM NaCl, having a resulting pH of 7.4. The suspension is then re-centrifuged at 20,000×g and suspended once more in the above-listed buffer. The pellet may be frozen at −70° C. prior to the final centrifugation. For the binding assay, membranes (10-20 μg protein) are incubated with [^35S]GTPγγS (50 pM), GDP (usually 10 μM), and the desired compound. The total volume of the mixture is 1 ml, which is incubated for 60 min at 25° C.
Following incubation, samples are filtered over glass fiber filters and counted. […]
In these [^35S]GTPγS assays, binding was conducted as described above. EC50 values and percent stimulation were determined using the program Prism.

human ORL1 [2] = target: T1, human ORL1; assay: [3H]nociceptin binding to membranes of CHO cells transfected with human ORL1; details: for Hill Coefficient: Table 5

T1 sequence (P41146 whole entry): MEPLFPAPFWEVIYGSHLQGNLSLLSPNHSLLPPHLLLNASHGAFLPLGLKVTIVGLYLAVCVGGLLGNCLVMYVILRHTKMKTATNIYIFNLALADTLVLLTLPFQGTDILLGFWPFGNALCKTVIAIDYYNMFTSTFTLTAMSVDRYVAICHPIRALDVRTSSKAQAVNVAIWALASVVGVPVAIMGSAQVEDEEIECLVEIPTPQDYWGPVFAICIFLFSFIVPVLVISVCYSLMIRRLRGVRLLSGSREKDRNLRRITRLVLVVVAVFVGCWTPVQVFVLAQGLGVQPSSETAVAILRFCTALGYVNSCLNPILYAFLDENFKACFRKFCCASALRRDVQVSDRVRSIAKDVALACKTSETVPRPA

Molecule	Emax (human ORL1 [1]) [%]	Hill Coefficient (human ORL1 [2])	further results
CC(=O)N[C@@H](CCCNC(=N)N)C(=O)N[C@@H](Cc1ccc(F)cc1)C(=O)N[C@@H](Cc1ccc(O)cc1)C(=O)N[C@@H](CCCNC(=N)N)C(=O)N[C@@H](Cc1c[nH]c2ccccc12)C(=O)N[C@@H](CCCNC(=N)N)C(N)=O [VII-31-B, Ac-Arg-Phe(4-F)-Tyr-Arg-Trp-Arg-NH2] (Ac-R[Phe(4-F)]YRWR-NH2)	54.4 ± 1.2	0.81	
CC(=O)N[C@@H](CCCNC(=N)N)C(=O)N[C@@H](Cc1ccc(F)cc1)C(=O)N[C@@H](Cc1ccc(F)cc1)C(=O)N[C@@H](CCCNC(=N)N)C(=O)N[C@@H](Cc1c[nH]c2ccccc12)C(=O)N[C@@H](CCCNC(=N)N)C(N)=O [VII-33-B, Ac-Arg-Phe(4-F)-Phe(4-F)-Arg-Trp-Arg-NH2] (Ac-R[Phe(4-F)][Phe(4-F)]RWR-NH2)	< 20	0.89	EC50 ± SEM, stimulation of [35S]GTPγS binding (human ORL1 [1]): FLAT
COc1ccc(C[C@H](NC(=O)[C@H](CCCNC(=N)N)NC(C)=O)C(=O)N[C@@H](Cc2ccc(O)cc2)C(=O)N[C@@H](CCCNC(=N)N)C(=O)N[C@@H](Cc2c[nH]c3ccccc23)C(=O)N[C@@H](CCCNC(=N)N)C(N)=O)cc1 [VII-35-C, Ac-Arg-Tyr(4-Me)-Tyr-Arg-Trp-Arg-NH2] (Ac-RY(Me)YRWR-NH2)	52.1 ± 0.6	0.75	
COc1ccc(C[C@H](NC(=O)[C@H](CCCNC(=N)N)NC(C)=O)C(=O)N[C@@H](Cc2ccc(OC)cc2)C(=O)N[C@@H](CCCNC(=N)N)C(=O)N[C@@H](Cc2c[nH]c3ccccc23)C(=O)N[C@@H](CCCNC(=N)N)C(N)=O)cc1 [VII-37-B, Ac-Arg-Tyr(4-Me)-Tyr(4-Me)-Arg-Trp-Arg-NH2] (Ac-RY(Me)Y(Me)RWR-NH2)	< 20	0.82	EC50 ± SEM, stimulation of [35S]GTPγS binding (human ORL1 [1]): FLAT
CC(=O)N[C@@H](CCCNC(=N)N)C(=O)N[C@@H](Cc1ccc(C#N)cc1)C(=O)N[C@@H](Cc1ccc(O)cc1)C(=O)N[C@@H](CCCNC(=N)N)C(=O)N[C@@H](Cc1c[nH]c2ccccc12)C(=O)N[C@@H](CCCNC(=N)N)C(N)=O [VII-43-C, Ac-Arg-Phe(4-CN)-Tyr-Arg-Trp-Arg-NH2] (Ac-R[Phe(4-CN)]YRWR-NH2)	49.7 ± 6.6	0.73	agonist/antagonist character at ORL1 (human ORL1 [1]; in words): partial agonist
CC(=O)N[C@@H](CCCNC(=N)N)C(=O)N[C@@H](CCc1ccccc1)C(=O)N[C@@H](CCc1ccccc1)C(=O)N[C@@H](CCCNC(=N)N)C(=O)N[C@@H](Cc1c[nH]c2ccccc12)C(=O)N[C@@H](CCCNC(=N)N)C(N)=O [VII-49-B, Ac-Arg-hPhe-hPhe-Arg-Trp-Arg-NH2] (Ac-R[hPhe][hPhe]RWR-NH2)	< 20	0.94	EC50 ± SEM, stimulation of [35S]GTPγS binding (human ORL1 [1]): FLAT
CC(=O)N[C@@H](CCCNC(=N)N)C(=O)N[C@@H](Cc1ccc(O)cc1)C(=O)N[C@@H](Cc1ccc(O)cc1)C(=O)N[C@@H](CCCNC(=N)N)C(=O)N[C@@H](Cc1c[nH]c2ccc(C#N)cc12)C(=O)N[C@@H](CCCNC(=N)N)C(N)=O [VII-51-A, Ac-Arg-Tyr-Tyr-Arg-Trp(5-CN)-Arg-NH2] (Ac-RYYR[Trp(5-CN)]R-NH2)	49.1 ± 0.19	0.7	Ki (human ORL1 [2]): 0.3 ± 0.133 nM
CC(=O)NCCCCCC(=O)N[C@@H](Cc1ccc(O)cc1)C(=O)N[C@@H](Cc1ccc(O)cc1)C(=O)N[C@@H](CCCNC(=N)N)C(=O)N[C@@H](Cc1c[nH]c2ccccc12)C(=O)N[C@@H](CCCNC(=N)N)C(N)=O [VII-53-B, Ac-ε-aminocaproyl-Tyr-Tyr-Arg-Trp-Arg-NH2] (Ac-[Ahx]YYRWR-NH2)	39.5 ± 4	0.86	
CC(=O)N[C@@H](CCCNC(=N)N)C(=O)N[C@@H](Cc1ccc(O)cc1)C(=O)N[C@@H](Cc1ccc(O)cc1)C(=O)NCCCCCC(=O)N[C@@H](Cc1c[nH]c2ccccc12)C(=O)N[C@@H](CCCNC(=N)N)C(N)=O [VII-55-A, Ac-Arg-Tyr-Tyr-ε-aminocaproyl-Trp-Arg-NH2] (Ac-RYY[Ahx]WR-NH2)	26.6 ± 1.95	1.12	
Ac-Arg-Phe(SO3H)-Tyr-Arg-Trp-Arg-NH2 (Ac-R[Phe(SO3H)]YRWR-NH2) [VII-27-B]		1.12	
Ac-RYYRWR-NH2 [Ac-RYYRWR-NH2] [listing 1 of 2 here]			EC50 (human ORL1 [1]): 1.2 nM
Ac-RYYRWR-NH2 [Ac-RYYRWR-NH2] [listing 2 of 2 here]			[35S]GTPγS Binding Percent Stimulation (human ORL1 [1]; Table 1, relative to nociceptin): 100%
